In ChEMBL document CHEMBL1131581, “4H-1,2,4-Pyridothiadiazine 1,1-dioxides and 2,3-dihydro-4H-1,2, 4-pyridothiadiazine 1,1-dioxides chemically related to diazoxide and cyclothiazide as powerful positive allosteric modulators of (R/S)-2-amino-3-(3-hydroxy-5-methylisoxazol-4-yl)propionic acid receptors: design, synthesis, …” (J Med Chem, 1998):

Tests used:
[1] = species: Rattus norvegicus; assay: Residual insulin release from rat pancreatic islets incubated in the presence of an insulinotropic […] glucose concentration and at a 50 uM concentration of drug; format: functional
[2] = species: Rattus norvegicus; assay: Effect on duration of the postsynaptic excitatory potentials induced by electric stimulation in rat hippocampal slices; format: functional, Hippocampus
[3] = Ratio between the D50 value and the A50 value; format: functional
[4] = biological target: T1, Glutamate receptor ionotropic, AMPA (Rattus norvegicus) (UniProt P19491+P19492+P19493+P19490); assay: Concentration of drug giving a 2-fold increase of the magnitude of the current induced by Ionotropic glutamate receptor AMPA (30 uM) and measured in Xenopus Oocytes expressing Rat Cortex AMPA Receptors; format: functional, cell-based
[5] = biological target: T1, Glutamate receptor ionotropic, AMPA (Rattus norvegicus); assay: concentration of drug giving a 5-fold increase of the magnitude of the current induced by Ionotropic glutamate receptor AMPA (30 uM) and measured in Xenopus Oocytes expressing Rat Cortex AMPA Receptors; format: functional, cell-based
[6] = Partition coefficient was measured in between 1-octanol and aqueous buffer solution of pH 7.4; format: physicochemical; conditions: 1-octanol/aqueous buffer
[7] = species: Rattus norvegicus; assay: Effect on amplitude of the postsynaptic excitatory potentials induced by electric stimulation in rat hippocampal slices; format: functional, Hippocampus
[8] = species: Rattus norvegicus; assay: Concentration for 50 percent increase of the amplitude (A50) of the postsynaptic excitatory potentials induced by electric stimulation in rat hippocampal slices; format: functional, Hippocampus
[9] = species: Rattus norvegicus; assay: Concentration for 50 percent increase of the duration (D50) of the postsynaptic excitatory potentials induced by electric stimulation in rat hippocampal slices; format: functional, Hippocampus

Row | Structure (SMILES) | EC2x [4] | EC5X [5] | further results
1 | CC1Nc2cccnc2S(=O)(=O)N1 (stereo not given) | 114 µM | 270 µM | RIS [1]: 81%; D50 [2]: 100 µM; Ratio [3]: 0.65; logD [6]: -0.2; A50 [7]: 154 µM
2 | NS(=O)(=O)c1cc2c(cc1Cl)NC(C1CC3C=CC1C3)NS2(=O)=O (stereo not given) [CYCLOTHIAZIDE] | 1.6 µM | 9.8 µM | D50 [2]: >300 µM; A50 [7]: >300 µM
3 | CC1=NS(=O)(=O)c2cccnc2N1 | > 1000 µM | > 1000 µM | RIS [1]: 92.8%; logD [6]: -0.25
4 | O=S1(=O)NCNc2cccnc21 | 300 µM | 1100 µM | 
5 | CCC(CC)C1Nc2ccncc2S(=O)(=O)N1 (stereo not given) | > 1000 µM | > 1000 µM | 
6 | CC1=NS(=O)(=O)c2cnccc2N1 | > 1000 µM | > 1000 µM | RIS [1]: 100%; logD [6]: -0.41
7 | CN1C=NS(=O)(=O)c2ncccc21 | 265 µM | 645 µM | 
8 | CC1=NS(=O)(=O)c2cccnc2N1C | 800 µM | > 1000 µM | 
9 | CN1CNc2cccnc2S1(=O)=O | 341 µM | 766 µM | 
10 | O=S1(=O)c2cnccc2NCN1c1ccccc1 | > 100 µM | > 100 µM | 
11 | CC1=NS(=O)(=O)c2ncccc2N1 | 400 µM | 900 µM | RIS [1]: 98.7%; logD [6]: -0.91
12 | CCC1Nc2ccncc2S(=O)(=O)N1 (stereo not given) | > 1000 µM | > 1000 µM | 
13 | CCCN1CN(C)c2ccncc2S1(=O)=O | > 1000 µM | > 1000 µM | 
14 | CC(C)N1CNc2ccncc2S1(=O)=O | > 300 µM | > 300 µM | 
15 | CCC1NS(=O)(=O)c2cnccc2N1C (stereo not given) | 800 µM | > 1000 µM | 
16 | CCN1C=NS(=O)(=O)c2ncccc21 | 96 µM | 186 µM | 
17 | CCC1=NS(=O)(=O)c2cnccc2N1 | > 1000 µM | > 1000 µM | 
18 | O=S1(=O)NCN(CC(F)(F)F)c2ccncc21 | 110 µM | 215 µM | 
19 | O=S1(=O)NCNc2ccncc21 | > 1000 µM | > 1000 µM | 

Row | Structure (SMILES) | EC2x [4] | EC5X [5] | further results
20 | CC(C)N1CNS(=O)(=O)c2ncccc21 | 27 µM | 41 µM | 
21 | CCCNC1=NS(=O)(=O)c2cnccc2N1 | > 1000 µM | > 1000 µM | RIS [1]: 57.7%
22 | CC1=NS(=O)(=O)c2cnccc2N1C(C)C | 500 µM | 1200 µM | 
23 | O=S1(=O)NC(C2CCCCC2)Nc2ccncc21 (stereo not given) | > 1000 µM | > 1000 µM | 
24 | CN1CN(C)S(=O)(=O)c2ncccc21 | 39 µM | 133 µM | 
25 | CC(C)C(C)NC1=NS(=O)(=O)c2cnccc2N1 (stereo not given) | > 1000 µM | > 1000 µM | RIS [1]: 8.6%
26 | O=S1(=O)c2cnccc2NCN1C1CCCCC1 | > 100 µM | > 100 µM | 
27 | CN1CNS(=O)(=O)c2cccnc21 | 200 µM | 500 µM | 
28 | CCCCN1CNS(=O)(=O)c2cnccc21 | 800 µM | > 1000 µM | 
29 | CC1=Nc2ccc(Cl)cc2S(=O)(=O)N1 [DIAZOXIDE] | 448 µM | > 1000 µM | RIS [1]: 28.8%; A50 [8]: >500 µM; D50 [9]: >500 µM
30 | CN1CNS(=O)(=O)c2cnccc21 | 63 µM | 283 µM | RIS [1]: 95.8%; D50 [2]: 130 µM; Ratio [3]: 0.6; A50 [7]: 216 µM
31 | CC(C)C1Nc2ccncc2S(=O)(=O)N1 (stereo not given) | > 1000 µM | > 1000 µM | 
32 | COc1ccc(C(=O)N2CCCC2=O)cc1 | 1440 µM | > 3000 µM | D50 [2]: >2000 µM
33 | O=S1(=O)NCN(C2CCCCC2)c2ccncc21 | > 1000 µM | > 1000 µM | 
34 | O=S1(=O)N=C(C(F)(F)F)Nc2ccncc21 | > 1000 µM | > 1000 µM | 
35 | CCN1CN(C)S(=O)(=O)c2ncccc21 | 38 µM | 96 µM | 
36 | O=S1(=O)N=CNc2ncccc21 | > 1000 µM | > 1000 µM | 
37 | O=S1(=O)N=CNc2ccncc21 | > 1000 µM | > 1000 µM | 
38 | CC(C)N1CN(C)S(=O)(=O)c2cnccc21 | > 1000 µM | > 1000 µM | 

Row | Structure (SMILES) | EC2x [4] | EC5X [5] | further results
39 | CCCN1CNS(=O)(=O)c2cnccc21 | 300 µM | 805 µM | 
40 | O=S1(=O)NC(c2ccccc2)Nc2ccncc21 (stereo not given) | > 1000 µM | > 1000 µM | 
41 | O=S1(=O)NCNc2ncccc21 | > 1000 µM | > 1000 µM | 
42 | CCN1CN(CC)S(=O)(=O)c2ncccc21 | 87 µM | 220 µM | 
43 | O=S1(=O)N=CNc2cccnc21 | > 1000 µM | > 1000 µM | 
44 | CC1NS(=O)(=O)c2cnccc2N1C (stereo not given) | 150 µM | 450 µM | 
45 | CCC(C)NC1=NS(=O)(=O)c2cnccc2N1 (stereo not given) | > 1000 µM | > 1000 µM | RIS [1]: 9.4%
46 | CC1Nc2ccncc2S(=O)(=O)N1C (stereo not given) | 214 µM | 381 µM | 
47 | CCCCCN1CNc2ccncc2S1(=O)=O | > 100 µM | > 100 µM | 
48 | CN1CNS(=O)(=O)c2ncccc21 | 21 µM | 51 µM | D50 [2]: 48 µM; Ratio [3]: 0.6; A50 [7]: 79 µM
49 | CN1CN(C)S(=O)(=O)c2cnccc21 | 300 µM | > 1000 µM | 
50 | CCN1CNS(=O)(=O)c2cnccc21 | 55 µM | 195 µM | D50 [2]: 137 µM; Ratio [3]: 0.6; A50 [7]: 222 µM
51 | CCCC1Nc2ccncc2S(=O)(=O)N1 (stereo not given) | > 1000 µM | > 1000 µM | 
52 | CC1Nc2ncccc2S(=O)(=O)N1 (stereo not given) | > 1000 µM | > 1000 µM | RIS [1]: 94.8%; logD [6]: 0.35
53 | NC1=NS(=O)(=O)c2cnccc2N1 | > 1000 µM | > 1000 µM | RIS [1]: 104%
54 | CC1Nc2ccncc2S(=O)(=O)N1 (stereo not given) | 500 µM | > 1000 µM | RIS [1]: 93.6%; logD [6]: 0.13
55 | CC1=NS(=O)(=O)c2cnccc2N1C | 250 µM | 800 µM | 
56 | CN1CNc2ccncc2S1(=O)=O | > 1000 µM | > 1000 µM | 
57 | CC(C)N1CNS(=O)(=O)c2cnccc21 | 94 µM | 237 µM | RIS [1]: 101%
